Assay results taken from the NIST ThermoML archive (doi:10.1016/j.jct.2014.10.007).
Several values for one entry are separate records, joined by “and”; a condition that tells them apart may be missing. Equal entries are not always repeated. ± gives the expanded uncertainty stated by the source.

Assay: molar heat capacity at constant pressure; xn = mol fraction of the nth substance listed
Settings: 1 kPa, Liquid, Small sample (50 mg) DSC

[Ca+2].[F-].[F-] [calcium fluoride] + [F-].[Li+]
molar heat capacity at constant pressure (1255 K, x1 = 0.25): 98.98 ± 10 J/K/mol
molar heat capacity at constant pressure (1255.2 K, x1 = 0.125): 70.22 ± 7.2 J/K/mol
molar heat capacity at constant pressure (1255.2 K, x1 = 0.375): 113.91 ± 12 J/K/mol
molar heat capacity at constant pressure (1274.7 K, x1 = 0.25): 102.2 ± 10 J/K/mol
molar heat capacity at constant pressure (1275 K, x1 = 0.375): 118.44 ± 12 J/K/mol
molar heat capacity at constant pressure (1275.1 K, x1 = 0.125): 82.4 ± 8.3 J/K/mol
molar heat capacity at constant pressure (1294.9 K, x1 = 0.25): 103.71 ± 10 J/K/mol
molar heat capacity at constant pressure (1294.9 K, x1 = 0.375): 121.83 ± 12 J/K/mol
molar heat capacity at constant pressure (1305.1 K, x1 = 0.125): 80.92 ± 8.2 J/K/mol
molar heat capacity at constant pressure (1314.9 K, x1 = 0.25): 96.32 ± 9.7 J/K/mol
molar heat capacity at constant pressure (1315.2 K, x1 = 0.375): 118.21 ± 12 J/K/mol
molar heat capacity at constant pressure (1325.3 K, x1 = 0.125): 79.47 ± 8 J/K/mol
molar heat capacity at constant pressure (1334.9 K, x1 = 0.5): 133.92 ± 14 J/K/mol and 120.41 ± 12 J/K/mol
molar heat capacity at constant pressure (1335.2 K, x1 = 0.25): 98.52 ± 9.9 J/K/mol
molar heat capacity at constant pressure (1335.2 K, x1 = 0.375): 115.41 ± 12 J/K/mol
molar heat capacity at constant pressure (1345.4 K, x1 = 0.125): 83.81 ± 8.5 J/K/mol
molar heat capacity at constant pressure (1354.9 K, x1 = 0.5): 125.69 ± 13 J/K/mol and 133.39 ± 13 J/K/mol
molar heat capacity at constant pressure (1355.4 K, x1 = 0.125): 82.43 ± 8.3 J/K/mol
molar heat capacity at constant pressure (1355.5 K, x1 = 0.375): 116.94 ± 12 J/K/mol
molar heat capacity at constant pressure (1355.6 K, x1 = 0.25): 98.96 ± 10 J/K/mol
molar heat capacity at constant pressure (1375.4 K, x1 = 0.5): 130.29 ± 13 J/K/mol and 135.8 ± 14 J/K/mol
molar heat capacity at constant pressure (1375.5 K, x1 = 0.375): 117.98 ± 12 J/K/mol
molar heat capacity at constant pressure (1375.7 K, x1 = 0.125): 75.1 ± 7.6 J/K/mol
molar heat capacity at constant pressure (1375.7 K, x1 = 0.25): 95.16 ± 9.6 J/K/mol
molar heat capacity at constant pressure (1395.9 K, x1 = 0.5): 132.9 ± 13 J/K/mol and 134.28 ± 14 J/K/mol
molar heat capacity at constant pressure (1396 K, x1 = 0.125): 81.03 ± 8.2 J/K/mol
molar heat capacity at constant pressure (1396.1 K, x1 = 0.25): 106.8 ± 11 J/K/mol
molar heat capacity at constant pressure (1396.2 K, x1 = 0.375): 111.04 ± 11 J/K/mol
molar heat capacity at constant pressure (1415.9 K, x1 = 0.5): 130.4 ± 13 J/K/mol and 137.28 ± 14 J/K/mol
molar heat capacity at constant pressure (1416 K, x1 = 0.125): 75.28 ± 7.6 J/K/mol
molar heat capacity at constant pressure (1416.1 K, x1 = 0.25): 101.47 ± 10 J/K/mol
molar heat capacity at constant pressure (1416.1 K, x1 = 0.375): 112.61 ± 11 J/K/mol
molar heat capacity at constant pressure (1436.2 K, x1 = 0.125): 76.95 ± 7.8 J/K/mol
molar heat capacity at constant pressure (1436.2 K, x1 = 0.5): 135.89 ± 14 J/K/mol and 130.39 ± 13 J/K/mol
molar heat capacity at constant pressure (1436.3 K, x1 = 0.375): 112.16 ± 11 J/K/mol
molar heat capacity at constant pressure (1436.4 K, x1 = 0.25): 102.59 ± 10 J/K/mol
molar heat capacity at constant pressure (1456.5 K, x1 = 0.375): 120.54 ± 12 J/K/mol
molar heat capacity at constant pressure (1456.5 K, x1 = 0.5): 134.58 ± 14 J/K/mol and 132.82 ± 13 J/K/mol
molar heat capacity at constant pressure (1456.6 K, x1 = 0.125): 77.21 ± 7.8 J/K/mol
molar heat capacity at constant pressure (1456.8 K, x1 = 0.25): 102.41 ± 10 J/K/mol
molar heat capacity at constant pressure (1476.7 K, x1 = 0.5): 147.97 ± 15 J/K/mol and 127.49 ± 13 J/K/mol
molar heat capacity at constant pressure (1476.8 K, x1 = 0.125): 83.38 ± 8.4 J/K/mol
molar heat capacity at constant pressure (1476.9 K, x1 = 0.375): 111.58 ± 11 J/K/mol
molar heat capacity at constant pressure (1477 K, x1 = 0.25): 101.6 ± 10 J/K/mol
molar heat capacity at constant pressure (1497.1 K, x1 = 0.125): 90.8 ± 9.2 J/K/mol
molar heat capacity at constant pressure (1497.1 K, x1 = 0.375): 123.99 ± 13 J/K/mol
molar heat capacity at constant pressure (1497.1 K, x1 = 0.5): 143.74 ± 15 J/K/mol and 127.89 ± 13 J/K/mol
molar heat capacity at constant pressure (1497.2 K, x1 = 0.25): 101.05 ± 10 J/K/mol
molar heat capacity at constant pressure (1517.3 K, x1 = 0.125): 97.18 ± 9.8 J/K/mol
molar heat capacity at constant pressure (1517.4 K, x1 = 0.5): 142.13 ± 14 J/K/mol and 123.38 ± 13 J/K/mol
molar heat capacity at constant pressure (1517.5 K, x1 = 0.375): 109.29 ± 11 J/K/mol
molar heat capacity at constant pressure (1517.6 K, x1 = 0.25): 104.18 ± 11 J/K/mol
